Assay results as given in paper PMC11218446, “Antibacterial efficacy and membrane mechanism of action of the Serratia-derived non-ionic lipopeptide, serrawettin W2-FL10” (Microbiology Spectrum, 2024).
“And” between values parts separate entries of the source, which are not always exact repeats. Identical values can stand only once.

Columns and labels:
three S. aureus strains [1] = assay: Membrane permeability assay, propidium iodide, summary; format: cell-based, Staphylococcus aureus; conditions: discussion
Procedure: The membrane permeability capabilities of the W2-FL10 against the S. aureus strains were determined using PI ([56]). Briefly, black 96-well plates were prepared with W2-FL10 at 6.25, 12.5, and 25 µg/mL, while 4–16 µg/mL of melittin was used as a positive permeability control, and the plates were dried as described in the “Antibacterial activity: broth microdilution assay” section. The S. aureus strains were inoculated into MHB, grown to mid-log phase (OD600 of 0.5–0.6), and diluted to OD600 of 0.3. PI (stock concentration of 1 mg/mL in analytical quality H2O) was added to the cell suspension to a final concentration of 10 µg/mL and cells were incubated in the dark at room temperature for 20 min. Thereafter, 100 µL of OD-adjusted PI cells in the mid-log phase were dispensed into each well. Sterile broth and the OD-adjusted inoculum with PI were included as a non-fluorescent control, while sterile broth with PI was included as a sterility control, and melittin was included as membrane depolarization control. […] Fluorometric readings of the plate were conducted in 4-min intervals over 60 min (readings began ~60 s after cells were added to the plate) using a Tecan Spark at 535 nm excitation wavelength and 617 nm emission wavelength.
The leakage kinetics or PI permeabilization kinetic was assessed using a rate parameter of ΔPI fluorescence per minute. […]

S. aureus ATCC 25923 [2] = assay: Broth microdilution assay (OD 600 nm); format: cell-based, Staphylococcus aureus
Procedure: (§1) Serrawettin W2-FL10 (95% pure) was tested for antibacterial activity using a broth microdilution susceptibility assay ([6]), with melittin included as an antibiotic control. The serrawettin W2-FL10 was prepared in 70% MeCN to 1.00 mg/mL, from which aliquots were prepared using 70% MeCN to a concentration of 50 µg/mL or 500 µg/mL, while aliquots of melittin were prepared using analytical quality H2O to 128 µg/mL. Fifty microliters of the respective W2-FL10 aliquots or melittin were dispensed into a clear 96-well plate and a microdilution (in 70% MeCN for W2-FL10 or analytical quality H2O for melittin) was performed within the plate. The plate was air-dried to remove the solvent and placed in a desiccator with chloroform for 20 min for sterilization.
(§2) All the cultures (inoculated into 5 mL MHB, or 5 mL TSB for Listeria and Enterococcus strains) were incubated at 37°C to reach an optical density (OD) of 0.4 at 600 nm (∼10^7 CFU/mL). A 1:20 dilution of the test strain (final concentration of ∼10^5 CFU/mL) was prepared and 100 µL was dispensed into each well (final concentration of W2-FL10 at 1.5–125 µg/mL and melittin at 2–32 µg/mL). Sterile broth and the OD-adjusted inoculum were included as positive controls, while sterile broth (no inoculum) was included as a negative control. The 96-well plate was incubated for 18 h at 37°C. All the tests were performed in triplicate, with independent duplicates. Following incubation, the absorbance was measured using a microtiter plate reader at 600 nm. The 50% growth inhibition concentration (IC50) was determined using GraphPad Prism version 5 for Windows [GraphPad Software, San Diego, USA (www.graphpad.com)]. A sigmodal curve with variable slope was fitted to each set of dose-repose data according to Rautenbach et al. ([17]) using equation (1):
(§3) (1) Y=bottom+(top−bottom)/1+10^logIC50×Activity slope
(§4) The “top” and “bottom” are the maximum and minimum inhibition responses, respectively, for a particular set of dose-response data, while the activity slope is related to the Hill slope of a sigmoidal binding curve ([16]). […] The MIC value was determined for each set of dose-response data as the lowest concentration, resulting in ≥90% inhibition of the target cell growth. In addition to the MIC and IC50 inhibition parameters, an inhibition concentration factor (ICF), was calculated as outlined in Rautenbach et al. ([17]). The ICF is indicative of the concentration increase from the highest concentration where no activity is observed to the MIC of a compound.

[3] = tested on: S. aureus Xen 30 (MRSA Xen 30); assay: Broth microdilution assay (OD 600 nm); format: cell-based, Staphylococcus aureus
Procedure: as §1, §2, §3, §4

S. aureus RN4220 = assay: Broth microdilution assay (OD 600 nm); format: cell-based, Staphylococcus aureus
Procedure: as §1, §2, §3, §4

S. aureus ATCC 25923 [4] = assay: Membrane permeability assay, propidium iodide; format: cell-based, Staphylococcus aureus; conditions: 25 µg/mL
Procedure: The membrane permeability capabilities of the W2-FL10 against the S. aureus strains were determined using PI ([56]). Briefly, black 96-well plates were prepared with W2-FL10 at 6.25, 12.5, and 25 µg/mL, while 4–16 µg/mL of melittin was used as a positive permeability control, and the plates were dried as described in the “Antibacterial activity: broth microdilution assay” section. The S. aureus strains were inoculated into MHB, grown to mid-log phase (OD600 of 0.5–0.6), and diluted to OD600 of 0.3. PI (stock concentration of 1 mg/mL in analytical quality H2O) was added to the cell suspension to a final concentration of 10 µg/mL and cells were incubated in the dark at room temperature for 20 min. Thereafter, 100 µL of OD-adjusted PI cells in the mid-log phase were dispensed into each well. Sterile broth and the OD-adjusted inoculum with PI were included as a non-fluorescent control, while sterile broth with PI was included as a sterility control, and melittin was included as membrane depolarization control. All the tests were performed in triplicate, with independent duplicates. Fluorometric readings of the plate were conducted in 4-min intervals over 60 min (readings began ~60 s after cells were added to the plate) using a Tecan Spark at 535 nm excitation wavelength and 617 nm emission wavelength.
The leakage kinetics or PI permeabilization kinetic was assessed using a rate parameter of ΔPI fluorescence per minute. This was done by fitting linear regression lines on the linear sections, namely 6–16 min for melittin and 6–18 min, as well as 34–50 min for W2-FL10. The rates of PI permeabilization were compared between the three S. aureus strains using a one-way ANOVA with Bonferroni’s post hoc test.

three S. aureus strains [5] = assay: Time-kill kinetics, summary; format: cell-based, Staphylococcus aureus; conditions: at MIC
Procedure: Time-kill assays were performed for W2-FL10 against S. aureus ATCC 25923, S. aureus RN4220, and MRSA Xen 30 to determine the bacteriostatic (suppresses growth) or bactericidal (>3 log reduction in CFUs) activity of the compound, allowing for the determination of cell survival percentage per minute ([19]).
To determine the kill rate of the lipopeptide, exponentially growing S. aureus strains were prepared as described in the “Antibacterial activity: broth microdilution assay” section (OD600 = 0.4, ~10^7 CFU/mL; 1:20 dilution was conducted to obtain ~10^5 CFU/mL) ([24], [55]). Thereafter, 200 µL of the bacterial suspension (in MHB) was dispensed into a clear 96-well plate containing 12.5 or 25 µg/mL of W2-FL10, and plates were incubated at 37°C. Aliquots of 20 µL were collected at different time intervals (0, 1, 2, 4, 8, and 24 h), diluted in 180 µL PBS in a clear 96-well plate (from 10^−2 to 10^−8), and 100 µL of the respective dilution was spread onto LB agar plates. Undiluted samples of 20 µL were spot-plated onto LB agar to confirm the absence of cells at 8 and/or 24 h. The LB agar plates were then incubated overnight at 37°C and the CFU/mL was determined. A positive control of bacterial cells without peptide and a negative control with only LB were included. All the tests were performed in triplicate, with independent duplicates. […]

[6] = tested on: L. monocytogenes ATCC 13932; assay: Broth microdilution assay (OD 600 nm); format: cell-based, Listeria monocytogenes
Procedure: as §1, §2, §3, §4

[7] = 50% growth inhibition, sigmoidal curve fit, n = 3
[8] = inhibition concentration factor
[9] = ≥90% growth inhibition, OD 600 nm, MHB, 18 h 37°C

`CCCCCCCC1CC(=O)N[C@H](CC(C)C)C(=O)N[C@@H](CO)C(=O)N[C@@H]([C@@H](C)O)C(=O)N[C@H](Cc2ccccc2)C(=O)N[C@@H](CC(C)C)C(=O)O1` (stereo partly shown) [W2-FL10, serrawettin W2-FL10] was tested, and the “time within which delayed leakage of PI occurred” value (three S. aureus strains [1]) was 30 to 45 min, the “IC50 ± SD” value (S. aureus ATCC 25923 [2]; [7]) was 5.5 ± 0.3 (3) µg/mL and the Selectivity index (S. aureus ATCC 25923 [2]; LC50 (CHO)/IC50) was 5.3. The “ICF (MIC/IC50)^2” value (S. aureus ATCC 25923 [2]; [8]) was 5.2, the MIC (S. aureus ATCC 25923 [2]; [9]) was 12.5 μg/mL and 12.5 (17.1) μg/mL and the “IC50 ± SD” value [3, 7] was 5.7 ± 0.6 (3) µg/mL. The Selectivity index ([3]; LC50 (CHO)/IC50) was 5.1, the “ICF (MIC/IC50)^2” value [3, 8] was 4.8 and the MIC [3, 9] was 12.5 μg/mL and 12.5 (17.1) μg/mL. The “IC50 ± SD” value (S. aureus RN4220; [7]) was 5.7 ± 0.6 (3) µg/mL, the Selectivity index (S. aureus RN4220; LC50 (CHO)/IC50) was 5.1 and the “ICF (MIC/IC50)^2” value (S. aureus RN4220; [8]) was 4.9. For the same compound, the MIC (S. aureus RN4220; [9]) was 12.5 μg/mL and 12.5 (17.1) μg/mL, the “time within which ≥90% uptake in PI fluorescence was observed” value (S. aureus ATCC 25923 [4]) was ≤ 3,360 s and the “time within which >90% bactericidal action occurred” value (three S. aureus strains [5]) was 4 to 8 h. The “IC50 ± SD” value [6, 7] was 3.8 ± 0.2 (3) µg/mL, the Selectivity index ([6]; LC50 (CHO)/IC50) was 7.6 and the “ICF (MIC/IC50)^2” value [6, 8] was 2.7. The MIC ([6]; ≥90% growth inhibition, OD 600 nm, TSB, 18 h 37°C) was 6.3 μg/mL and 6.3 (8.5) μg/mL.
